In article PMC10878854, “Identification, structural characterization, and molecular dynamic simulation of ACE inhibitory peptides in whey hydrolysates from Chinese Rushan cheese by-product” (Food Chemistry: X, 2024):
No end group written: not given here.

Tested on: not given
Assay: not given
Details: not given

Row | Substance | α-helix content [%]
1 | H-FDRPFL-OH | 22.4
2 | H-KWEKPF-OH | 20.2

Molecular target: T1, ACE (Oryctolagus cuniculus, UniProt P12822)
T1 sequence (P12822 34-1310): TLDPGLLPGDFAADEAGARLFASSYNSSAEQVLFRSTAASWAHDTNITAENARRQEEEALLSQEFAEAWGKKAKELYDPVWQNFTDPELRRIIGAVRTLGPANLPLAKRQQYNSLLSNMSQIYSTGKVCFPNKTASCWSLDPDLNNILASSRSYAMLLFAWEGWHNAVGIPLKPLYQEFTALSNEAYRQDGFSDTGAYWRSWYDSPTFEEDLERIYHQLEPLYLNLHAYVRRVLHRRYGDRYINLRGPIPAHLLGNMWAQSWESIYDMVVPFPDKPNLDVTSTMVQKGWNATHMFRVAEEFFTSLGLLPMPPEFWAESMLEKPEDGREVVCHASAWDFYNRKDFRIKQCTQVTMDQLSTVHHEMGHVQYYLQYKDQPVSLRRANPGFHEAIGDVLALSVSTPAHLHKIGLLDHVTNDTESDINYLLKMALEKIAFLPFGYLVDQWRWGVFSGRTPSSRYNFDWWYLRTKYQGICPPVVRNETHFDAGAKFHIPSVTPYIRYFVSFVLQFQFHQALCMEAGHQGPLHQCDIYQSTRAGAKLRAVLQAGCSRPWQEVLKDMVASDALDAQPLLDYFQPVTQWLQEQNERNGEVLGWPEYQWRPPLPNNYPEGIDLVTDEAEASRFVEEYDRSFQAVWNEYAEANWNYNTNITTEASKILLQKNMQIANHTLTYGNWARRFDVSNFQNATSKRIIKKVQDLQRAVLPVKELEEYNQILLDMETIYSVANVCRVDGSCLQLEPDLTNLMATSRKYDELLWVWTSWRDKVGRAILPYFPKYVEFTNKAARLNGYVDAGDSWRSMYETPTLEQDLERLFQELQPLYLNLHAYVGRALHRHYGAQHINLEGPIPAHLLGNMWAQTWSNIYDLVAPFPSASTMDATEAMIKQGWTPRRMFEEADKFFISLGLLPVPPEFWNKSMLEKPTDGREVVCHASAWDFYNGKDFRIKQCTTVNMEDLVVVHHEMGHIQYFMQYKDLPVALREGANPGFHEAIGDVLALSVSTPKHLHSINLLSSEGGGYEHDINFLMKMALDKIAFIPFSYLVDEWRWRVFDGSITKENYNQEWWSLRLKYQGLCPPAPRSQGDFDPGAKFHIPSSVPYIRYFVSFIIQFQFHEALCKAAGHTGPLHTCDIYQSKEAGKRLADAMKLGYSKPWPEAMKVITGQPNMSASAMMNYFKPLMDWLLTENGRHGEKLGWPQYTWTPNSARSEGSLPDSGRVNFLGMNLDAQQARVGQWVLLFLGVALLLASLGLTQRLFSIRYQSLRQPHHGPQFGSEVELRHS
Assay: not given
Details: ACEIPs with mixed inhibitory patterns; ref Chen et al., 2020; Xie et al., 2022; cited from earlier work

Row | Substance | ACE inhibition pattern
3 | LSGYGP [literature mixed-pattern ACEIP derived from tilapia] | mixed
4 | SLPEW [literature mixed-pattern ACEIP derived from alpha-lactalbumin] | mixed
5 | VSLPEW [literature mixed-pattern ACEIP derived from alpha-lactalbumin] | mixed

Same assay, conditions: food-derived non-competitive ACEIPs; ref Xie et al., 2022; Paisansak et al., 2021; cited from earlier work

Row | Substance | ACE inhibition pattern
6 | GVSLPEW | non-competitive
7 | GYGGVSLPEW | non-competitive
8 | KIGSRSRFDVT | non-competitive
9 | VGINYW | non-competitive

Same assay, conditions: peptides derived from eel bone; ref Shao, 2022; cited from earlier work

Row | Substance | IC50 (ACE inhibitory activity) [µg/mL]
10 | GGPGPSGPR | 758
11 | GPAGPR | 1246
12 | GPIGPPGPR | 1441
13 | GPMGPR | 2247
14 | GPSGAPGPR | 1022
15 | PMGPR | 1470

Same assay, conditions: peptides derived from large yellow croaker; ref Li, 2021; cited from earlier work

Row | Substance | IC50 (ACE inhibitory activity) [µg/mL]
16 | LGYSF | 510
17 | LLAGGW | 490

Tested on: not given
Assay: not given
Details: not given
Remark: another data set of the same source

Row | Substance | β-turn content [%]
18 | H-FDRPFL-OH | 39.3
19 | H-KWEKPF-OH | 41.7

Tested on: not given
Assay: not given
Details: 90 % homology to known functional peptides; ref BIOPEP, EROP-Moscow, MBPDB databases; cited from earlier work
Text: Supplement mmc2.doc, table 1: Table S2. Bioactive peptides identified in Rushan cheese whey hydrolysates (RCWH). | column: Potential bioactive

Row | Substance | Potential bioactive
20 | AVPYPQR | ACE inhibitor, Antimicrobial, Antioxidative
21 | DKIHPF | ACE inhibitor
22 | DKVGINY | ACE inhibitor
23 | DKVGINYW | ACE inhibitor
24 | KVLPVPQK | ACE inhibitor, Antioxidative
25 | LKPTPEGDLE | Dipeptidyl peptidase IV inhibitor
26 | MAIPPKK | ACE inhibitor
27 | PFPGPIPN | ACE inhibitor
28 | SKVLPVPQ | ACE inhibitor
29 | VYPFPGPI | Antihypertensive
30 | VYPFPGPIP | Antihypertensive
31 | YPFPGPI | ACE inhibitor, Antioxidative, Anticancer
32 | YPFPGPIP | ACE inhibitor, Antioxidative

Molecular target: T1, ACE
Assay: In-vitro ACE inhibitory activity (HHL substrate, hippuric acid absorbance at 228 nm)
Format: biochemical
Details: synthetic peptides; 5 mM HHL, 25 mU/mL ACE, 37 °C 30 min, absorbance 228 nm; calculated from regression equations; mean ± SD, n = 3
Procedure: ACE inhibitory activity of whey hydrolysate fractions with different MW was assessed by a method reported by [Cushman and Cheung (1971)]. In brief, 30 μL of whey hydrolysate fraction was added to 80 μL of 5 mM HHL and incubated at 37 °C for 10 min. Then, 20 μL of 25 mU/ mL ACE was added to the mixture. The reaction was performed at 37 °C for 30 min and then stopped by adding 250 μL of 1 M HCl. Subsequently, 1.7 mL of ethyl acetate was added to the mixture to extract the released hippuric acid. After vigorous stirring for 10 s, the samples were submitted to centrifugation (TLG20M, Changsha Maijiasen Instrument Equipment Co., Ltd., China) at 5,000 rcf at 4 °C for 15 min. Then 1.4 mL of the organic phase was transferred to a fresh test tube. Ethyl acetate was evaporated by placing samples in a boiling water bath. The residue was dissolved in 3 mL of deionized water, and absorbance was measured at 228 nm by enzyme marker (Multiskan FC, Thermo Fisher Scientific). The following formula was used to calculate ACE inhibition rate: ACE-inhibition rate\%:[1-(C-D)/(A-B)]×100% Where A represents the absorbance with ACE but without the sample; B the absorbance without ACE and the sample; C the absorbance in the presence of ACE and the sample; and D the absorbance with the sample but without ACE.

Row | Substance | IC50 [µM]
33 | DDFFHR [DDFFHR] | > 1200
34 | GKWEKPF [GKWEKPF] | > 1120
35 | YDFYPR [YDFYPR] | > 1160

Tested on: not given
Assay: not given
Details: not given
Remark: another data set of the same source

Row | Substance | β-sheet content [%]
36 | H-FDRPFL-OH | 38.3
37 | H-KWEKPF-OH | 38
